In article PMC9088073, “Discovery of 2-Phenylquinolines with Broad-Spectrum Anti-coronavirus Activity” (ACS Medicinal Chemistry Letters, 2022):
Read-outs that look alike come from different tables or passages of the source. Marks after values point to notes of the source that are not given here.

Columns and labels:
SARS-CoV-2 = assay: microbe, parasite or virus in culture; assay type: cell-based; conditions: for EC50: Severe acute respiratory syndrome coronavirus 2
in vitro [1] = conditions: chlorocebus sabaeus
SARS-CoV-2 nsp13 ATPase = SARS-CoV-2 nsp13 ATPase (Severe acute respiratory syndrome coronavirus 2, UniProt P0DTD1); assay type: biochemical; conditions: for IC50: read-out: helicase ATPase IC50
HCoV-229E = assay: microbe, parasite or virus in culture; assay type: cell-based; conditions: Human coronavirus 229E, HEL 299, read-out: HCoV-229E EC50
HCoV-OC43 = assay: microbe, parasite or virus in culture; assay type: cell-based; conditions: Betacoronavirus 1, OC43, HEL 299, read-out: HCoV-OC43 EC50
in vitro [2] = conditions: human
VeroE6 cells = conditions: uninfected VeroE6 cells, MTS assay; mean ± SD of duplicate experiments
SARS-CoV-2 nsp12 RdRp = SARS-CoV-2 nsp12 RdRp (Severe acute respiratory syndrome coronavirus 2, UniProt P0DTD1); assay: SARS-CoV-2 nsp12 RdRp activity, fluorescent-based assay; assay type: biochemical; conditions: in the presence of the highest concentration of tested compound (30 μM); read-out: RdRp percentage of control
[3] = molecular target: SARS-CoV-2 nsp13 helicase (Severe acute respiratory syndrome coronavirus 2, UniProt P0DTD1); assay: biochemical; assay type: biochemical; conditions: for IC50: SARS-CoV-2 nsp13 helicase-associated activity, read-out: helicase unwinding IC50
[4] = read-out: Anti-SARS-CoV-2 activity EC50, primary screening
[5] = […], mean ± SD of duplicate experiments, read-out: Anti-SARS-CoV-2 activity EC50
[6] = […], mean ± SD of duplicate experiments
[7] = SARS-CoV-2 nsp13 ATPase-associated activity
[8] = in the presence of the highest concentration of tested compound (30 μM; 3 μM for SSYA10-001)

Which results are given for COc1cc(O)c2c(=O)cc(-c3ccc(OCCCN4CCN(C)CC4)c(N)c3)n(C)c2c1 [WRNA10]?
EC50 (SARS-CoV-2; [4]): 10 µM; CC50 (in vitro [1]): 40 µM

What does the source list for C=CCn1c(S)nnc1CSc1ccccc1[N+](=O)[O-] [SSYA10-001, reference compound]?
helicase ATPase percentage of control (SARS-CoV-2 nsp13 ATPase): >3 (90%) ^d; IC50 (SARS-CoV-2 nsp13 ATPase): > 3 µM

Which EC50 (SARS-CoV-2; [5]) does the source give for CCCOc1ccc(-c2cc(OCCN(CC)CC)c3ccccc3n2)cc1 [Compound 1a] here?
The EC50 was 6.5 ± 0.05 µM.

What about the EC50 (SARS-CoV-2; [4]) of the same compound?
Its EC50 is 6 µM.

And the CC50 (in vitro [1])?
Its CC50 is 21.2 ± 4.2 µM.

With CCCOc1ccc(-c2cc(C(=O)NCCN(CC)CC)c3ccccc3n2)cc1 [Compound 11l] as the compound, how does the EC50 (SARS-CoV-2; [5]) read?
The EC50 was > 100 µM.

And the “Anti-SARS-CoV-2 activity EC50” value (SARS-CoV-2; [6])?
Its value is “loss of activity”.

For CCCOc1ccc(-c2cc(OC3CC4CCN3CC4)c3ccccc3n2)cc1 (centres unmarked) [Compound 1d], which EC50 (SARS-CoV-2; [5]) is on record?
Its EC50 is > 100 µM.

For CCCOc1ccc(-c2cc(OCCn3cccc3)c3ccccc3n2)cc1 [Compound 1h], which EC50 (SARS-CoV-2; [5]) is on record?
The EC50 was > 100 µM.

Which EC50 (SARS-CoV-2; [5]) does the source give for CCN(CC)CCOc1cc(-c2ccc(Cl)s2)nc2ccccc12 [Compound 13a] here?
The EC50 was > 100 µM.

And the “Anti-SARS-CoV-2 activity EC50” value (SARS-CoV-2; [6])?
The value was “loss of activity”.

With CCCOc1ccc(-c2cc(OCCN3CCc4ccccc4C3)c3c(OC)cc(OC)cc3n2)cc1 [Compound 6n, 4-[2-(3,4-Dihydroisoquinolin-2(1H)-yl)ethoxy]-5,7-dimethoxy-2-(4-propoxyphenyl)quinoline] as the compound, how does the EC50 (SARS-CoV-2; [5]) read?
Its EC50 is > 100 µM.

What about the “Anti-SARS-CoV-2 activity EC50” value (SARS-CoV-2; [6]) of the same compound?
The value was “devoid of any activity”.

And the CC50 (in vitro [1])?
The CC50 was > 100 µM.

What does the source list for CCCOc1ccc(-c2cc(OCCN(CC)CC)c3c(OC)c(OC)c(OC)cc3n2)cc1 [Compound 10a]?
EC50 (SARS-CoV-2; [5]): 8.3 ± 1.8 µM; CC50 (in vitro [1]): 23.8 ± 8.3 µM

Which results are given for CCCOc1ccc(-c2cc(OCCN3CCc4cc(OC)ccc4C3)c3c(OC)cc(OC)cc3n2)cc1 [Compound 6m, 5,7-Dimethoxy-4-[2-(6-methoxy-3,4-dihydroisoquinolin-2(1H)-yl)ethoxy]-2-(4-propoxyphenyl)quinoline]?
EC50 (SARS-CoV-2; [5]): > 100 µM; Anti-SARS-CoV-2 activity EC50 (SARS-CoV-2; [6]): devoid of any activity; CC50 (in vitro [1]): > 100 µM

With CCCOc1ccc(-c2cc(OCCN(CC)CC)c3c(OC)cccc3n2)cc1 [Compound 2a] as the compound, how does the EC50 (SARS-CoV-2; [5]) read?
The EC50 was > 100 µM.

What does the source list for CCCOc1ccc(-c2cc(OCCN(CC)CC)c3cccc(OC)c3n2)cc1 [Compound 5a]?
EC50 (SARS-CoV-2; [5]): 9.1 ± 3.05 µM; EC50 (HCoV-229E): 1.3 ± 0.9 µM; EC50 (HCoV-OC43): 0.6 ± 0.1 µM; CC50 (in vitro [1]): > 100 µM; CC50 (in vitro [2]): 10.4 ± 0.8 µM

With CCCOc1ccc(-c2cc(OCCN3CCCC3)c3cccc(OC)c3n2)cc1 [Compound 5j] as the compound, how does the EC50 (SARS-CoV-2; [5]) read?
The EC50 was > 100 µM.

And the CC50 (in vitro [1])?
Its CC50 is 30.8 ± 0.1 µM.

For CCCOc1ccc(-c2cc(OCCN3CCc4cc(OC)c(OC)cc4C3)c3ccc(OC)cc3n2)cc1 [Compound 4g], which EC50 (SARS-CoV-2; [5]) is on record?
Its EC50 is > 40 µM.

For CCCOc1ccc(-c2cc(OCCN3CCN(Cc4ccccc4)CC3)c3ccccc3n2)cc1 [Compound 1f], which EC50 (SARS-CoV-2; [5]) is on record?
The EC50 was 11.9 ± 5.5 µM.

What about the EC50 (HCoV-229E) of the same compound?
Its EC50 is 61.3 ± 32.2 µM.

And the EC50 (HCoV-OC43)?
The EC50 was 92.3 ± 11 µM.

And the “VeroE6 cells CC50” value (VeroE6 cells)?
Its value is “lacked cytotoxicity”.

And the CC50 (in vitro [1])?
The CC50 was > 100 µM.

What about the CC50 (in vitro [2]) of the same compound?
Its CC50 is > 100 µM.

For CCCOc1ccc(-c2cc(OCCN3CCc4cc(OC)c(OC)cc4C3)c3c(OC)cc(OC)cc3n2)cc1 [Compound 6g], which EC50 (SARS-CoV-2; [5]) is on record?
Its EC50 is 8.8 ± 5.6 µM.

And the EC50 (HCoV-229E)?
The EC50 was 2.9 ± 0.05 µM.

What about the EC50 (HCoV-OC43) of the same compound?
Its EC50 is 1.5 ± 0.1 µM.

And the remaining activity at 30 µM (SARS-CoV-2 nsp12 RdRp)?
The remaining activity at 30 µM was 62%.

And the IC50 [3]?
Its IC50 is 0.42 ± 0.23 µM.

And the IC50 (SARS-CoV-2 nsp13 ATPase; [7])?
The IC50 was > 30 µM.

And the “helicase ATPase percentage of control” value (SARS-CoV-2 nsp13 ATPase; [8])?
Its value is 90%.

And the CC50 (in vitro [1])?
The CC50 was > 100 µM.

What does the source list for CCCOc1ccc(-c2cc(O)c3ccccc3n2)cc1 [Compound 1]?
Anti-SARS-CoV-2 activity EC50, primary screening (SARS-CoV-2): completely inactive; EC50 (SARS-CoV-2; [5]): > 100 µM

Which EC50 (SARS-CoV-2; [5]) does the source give for CCCOc1ccc(-c2cc(OCCCN(C)C)c3ccccc3n2)cc1 [Compound 1b] here?
Its EC50 is > 100 µM.

With CCCOc1ccc(-c2cc(OCCN3CCN(Cc4ccccc4)CC3)c3c(OC)cc(OC)cc3n2)cc1 [Compound 6f] as the compound, how does the EC50 (SARS-CoV-2; [5]) read?
The EC50 was 7.9 ± 5.6 µM.

And the EC50 (HCoV-229E)?
The EC50 was 2.2 ± 0.7 µM.

What about the EC50 (HCoV-OC43) of the same compound?
Its EC50 is 1.9 ± 0.2 µM.

What about the remaining activity at 30 µM (SARS-CoV-2 nsp12 RdRp) of the same compound?
Its remaining activity at 30 µM is 100%.

And the IC50 [3]?
Its IC50 is > 30 µM.

And the remaining activity at 30 µM ([3]; in the presence of the highest concentration of tested compound (30 μM), read-out: helicase unwinding percentage of control)?
The remaining activity at 30 µM was 55%.

What about the IC50 (SARS-CoV-2 nsp13 ATPase; [7]) of the same compound?
The IC50 was > 30 µM.

What about the “helicase ATPase percentage of control” value (SARS-CoV-2 nsp13 ATPase; [8]) of the same compound?
Its value is 96%.

And the “VeroE6 cells CC50” value (VeroE6 cells)?
The value was “lacked cytotoxicity”.

What about the CC50 (in vitro [1]) of the same compound?
Its CC50 is > 100 µM.

What about the CC50 (in vitro [2]) of the same compound?
The CC50 was 35.6 ± 0.2 µM.

For CCCOc1ccc(-c2cc(OCCN(CC)CC)c3c(OC)cc(OC)cc3n2)cc1 [Compound 6a], which EC50 (SARS-CoV-2; [5]) is on record?
Its EC50 is > 100 µM.

What about the CC50 (in vitro [1]) of the same compound?
Its CC50 is 6.71 ± 3.5 µM.

With CCCOc1ccc(-c2cc(OCCN3CCCCC3)c3cc(OC)c(OC)cc3n2)cc1 [Compound 8k] as the compound, how does the EC50 (SARS-CoV-2; [5]) read?
Its EC50 is 2.6 ± 1.4 µM.

And the EC50 (HCoV-229E)?
Its EC50 is 0.2 ± 0.2 µM.

And the EC50 (HCoV-OC43)?
Its EC50 is 1.6 ± 0.2 µM.

And the CC50 (in vitro [1])?
The CC50 was 11.1 ± 1.3 µM.

And the CC50 (in vitro [2])?
The CC50 was 12.3 ± 1.1 µM.
